In article PMC8632988, “Inhibition of SYK and cSrc kinases can protect bone and cartilage in preclinical models of osteoarthritis and rheumatoid arthritis” (Scientific Reports, 2021):
Like-named read-outs stand apart in the source and are kept apart here.

Experiments:
Assay in all cases: Kinase selectivity profile assay
Assay type in all cases: biochemical
[1] = target: T1, TNIK (Homo sapiens, UniProt Q9UKE5); settings: 500 nM; relative to DMSO; read-out: Residual enzymatic activity
T1 construct: purchased Reaction Biology Corporation
How it was run: (§1)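 Radiometric kinase assay run by a standard protocol. Unbound phosphate was removed by washing filters in phosphoric acid, and product radioactivity gave percent remaining kinase activity versus DMSO vehicle reactions. Run in duplicate.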

[2] = target: T2, VRK2 (Homo sapiens, UniProt Q86Y07); settings: read-out: Residual enzymatic activity
T2 construct: purchased Reaction Biology Corporation
How it was run: as §1

[3] = target: T3, EPHA5 (Homo sapiens, UniProt P54756); settings: 500 nM, relative to DMSO
T3 construct: purchased Reaction Biology Corporation
How it was run: as §1

[4] = target: T4, HPK1/MAP4K1 (Homo sapiens, UniProt Q92918); settings: 500 nM; relative to DMSO; read-out: Residual enzymatic activity
T4 construct: purchased Reaction Biology Corporation
How it was run: as §1

[5] = target: T5, LCK2/ICK (Homo sapiens, UniProt Q9UPZ9); settings: 500 nM; relative to DMSO; read-out: Residual enzymatic activity
T5 construct: purchased Reaction Biology Corporation
How it was run: as §1

[6] = target: T6, RIPK5 (Homo sapiens, UniProt Q6XUX3); settings: 500 nM; relative to DMSO; read-out: Residual enzymatic activity
T6 construct: purchased Reaction Biology Corporation
How it was run: as §1

[7] = target: T7, SSTK/TSSK6 (Homo sapiens, UniProt Q9BXA6); settings: 500 nM; relative to DMSO; read-out: Residual enzymatic activity
T7 construct: purchased Reaction Biology Corporation
How it was run: as §1

[8] = target: T8, TRKB (Homo sapiens, UniProt Q16620); settings: 500 nM; relative to DMSO; read-out: Residual enzymatic activity
T8 construct: purchased Reaction Biology Corporation
How it was run: as §1

[9] = target: T9, ARAF (Homo sapiens, UniProt P10398); settings: 500 nM; relative to DMSO; read-out: Residual enzymatic activity
T9 construct: purchased Reaction Biology Corporation
How it was run: as §1

[10] = target: T10, CTK/MATK (Homo sapiens, UniProt P42679); settings: 500 nM; relative to DMSO; read-out: Residual enzymatic activity
T10 construct: purchased Reaction Biology Corporation
How it was run: as §1

[11] = target: T11, AKT2 (Homo sapiens, UniProt P31751); settings: 500 nM; relative to DMSO; read-out: Residual enzymatic activity
T11 construct: purchased Reaction Biology Corporation
How it was run: as §1

[12] = target: T12, ABL2/ARG (Homo sapiens, UniProt P42684); settings: for remaining activity at 0.5 µM: 500 nM, relative to DMSO, read-out: Residual enzymatic activity
T12 construct: purchased Reaction Biology Corporation (assay service)
How it was run: as §1

[13] = target: T13, GSK3b (Homo sapiens, UniProt P49841); settings: 500 nM; relative to DMSO; read-out: Residual enzymatic activity
T13 construct: purchased Reaction Biology Corporation
How it was run: as §1

[14] = target: T14, TAOK3/JIK (Homo sapiens, UniProt Q9H2K8); settings: 500 nM; relative to DMSO; read-out: Residual enzymatic activity
T14 construct: purchased Reaction Biology Corporation
How it was run: as §1

[15] = target: T15, PKG1a (Homo sapiens, UniProt Q13976); settings: 500 nM; relative to DMSO; read-out: Residual enzymatic activity
T15 construct: purchased Reaction Biology Corporation
How it was run: as §1

[16] = target: T16, SLK/STK2 (Homo sapiens, UniProt Q9H2G2); settings: 500 nM; relative to DMSO; read-out: Residual enzymatic activity
T16 construct: purchased Reaction Biology Corporation
How it was run: as §1

[17] = target: T17, LATS1 (Homo sapiens, UniProt O95835); settings: 500 nM; relative to DMSO; read-out: Residual enzymatic activity
T17 construct: purchased Reaction Biology Corporation
How it was run: as §1

[18] = target: T18, PKAcg (Homo sapiens, UniProt P22612); settings: 500 nM; relative to DMSO; read-out: Residual enzymatic activity
T18 construct: purchased Reaction Biology Corporation
How it was run: as §1

[19] = target: T19, MYLK3 (Homo sapiens, UniProt Q32MK0); settings: 500 nM; relative to DMSO; read-out: Residual enzymatic activity
T19 construct: purchased Reaction Biology Corporation
How it was run: as §1

[20] = target: T20, AKT3 (Homo sapiens, UniProt Q9Y243); settings: 500 nM; relative to DMSO; read-out: Residual enzymatic activity
T20 construct: purchased Reaction Biology Corporation
How it was run: as §1

[21] = target: T21, DAPK2 (Homo sapiens, UniProt Q9UIK4); settings: 500 nM; relative to DMSO; read-out: Residual enzymatic activity
T21 construct: purchased Reaction Biology Corporation
How it was run: as §1

[22] = target: T22, CAMK2g (Homo sapiens, UniProt Q13555); settings: 500 nM; relative to DMSO; read-out: Residual enzymatic activity
T22 construct: purchased Reaction Biology Corporation
How it was run: as §1

[23] = target: T23, P38b/MAPK11 (Homo sapiens, UniProt Q15759); settings: 500 nM; relative to DMSO; read-out: Residual enzymatic activity
T23 construct: purchased Reaction Biology Corporation
How it was run: as §1

[24] = target: T24, MST3/STK24 (Homo sapiens, UniProt Q9Y6E0); settings: 500 nM; relative to DMSO; read-out: Residual enzymatic activity
T24 construct: purchased Reaction Biology Corporation
How it was run: as §1

[25] = target: T25, CHK1 (Homo sapiens, UniProt O14757); settings: 500 nM; relative to DMSO; read-out: Residual enzymatic activity
T25 construct: purchased Reaction Biology Corporation
How it was run: as §1

[26] = target: T26, DLK/MAP3K12 (Homo sapiens, UniProt Q12852); settings: 500 nM; relative to DMSO; read-out: Residual enzymatic activity
T26 construct: purchased Reaction Biology Corporation
How it was run: as §1

[27] = target: T27, CDK7/cyclin H (Homo sapiens, UniProt P50613); settings: 500 nM; relative to DMSO; read-out: Residual enzymatic activity
T27 construct: purchased Reaction Biology Corporation
How it was run: as §1

[28] = target: T28, IRR/INSRR (Homo sapiens, UniProt P14616); settings: 500 nM; relative to DMSO; read-out: Residual enzymatic activity
T28 construct: purchased Reaction Biology Corporation
How it was run: as §1

[29] = target: T29, CAMKK1 (Homo sapiens, UniProt Q8N5S9); settings: 500 nM; relative to DMSO; read-out: Residual enzymatic activity
T29 construct: purchased Reaction Biology Corporation
How it was run: as §1

[30] = target: T30, CDK1/cyclin B (Homo sapiens, UniProt P06493); settings: 500 nM; relative to DMSO; read-out: Residual enzymatic activity
T30 construct: purchased Reaction Biology Corporation
How it was run: as §1

[31] = target: T31, SNARK/NUAK2 (Homo sapiens, UniProt Q9H093); settings: 500 nM; relative to DMSO; read-out: Residual enzymatic activity
T31 construct: purchased Reaction Biology Corporation
How it was run: as §1

[32] = target: T32, LYN (Homo sapiens, UniProt P07948); settings: for remaining activity at 0.5 µM: 500 nM, relative to DMSO, read-out: Residual enzymatic activity
T32 construct: purchased Reaction Biology Corporation (assay service)
How it was run: as §1

[33] = target: T33, EPHB3 (Homo sapiens, UniProt P54753); settings: 500 nM, relative to DMSO
T33 construct: purchased Reaction Biology Corporation
How it was run: as §1

[34] = target: T34, TSSK2 (Homo sapiens, UniProt Q96PF2); settings: 500 nM; relative to DMSO; read-out: Residual enzymatic activity
T34 construct: purchased Reaction Biology Corporation
How it was run: as §1

[35] = target: T35, CDK6/cyclin D1 (Homo sapiens, UniProt Q00534); settings: 500 nM; relative to DMSO; read-out: Residual enzymatic activity
T35 construct: purchased Reaction Biology Corporation
How it was run: as §1

[36] = target: T36, ERK2/MAPK1 (Homo sapiens, UniProt P28482); settings: 500 nM; relative to DMSO; read-out: Residual enzymatic activity
T36 construct: purchased Reaction Biology Corporation
How it was run: as §1

[37] = target: T37, RIPK3 (Homo sapiens, UniProt Q9Y572); settings: 500 nM; relative to DMSO; read-out: Residual enzymatic activity
T37 construct: purchased Reaction Biology Corporation
How it was run: as §1

[38] = target: T38, MEKK1 (Homo sapiens, UniProt Q13233); settings: 500 nM; relative to DMSO; read-out: Residual enzymatic activity
T38 construct: purchased Reaction Biology Corporation
How it was run: as §1

[39] = target: T39, CDK2/cyclin E (Homo sapiens, UniProt P24941); settings: 500 nM; relative to DMSO; read-out: Residual enzymatic activity
T39 construct: purchased Reaction Biology Corporation
How it was run: as §1

[40] = target: T40, EPHB2 (Homo sapiens, UniProt P29323); settings: 500 nM, relative to DMSO
T40 construct: purchased Reaction Biology Corporation
How it was run: as §1

[41] = 10-dose mode, threefold serial dilution from 10 μM
[42] = read-out: Residual enzymatic activity

T12 sequence (P42684 whole entry): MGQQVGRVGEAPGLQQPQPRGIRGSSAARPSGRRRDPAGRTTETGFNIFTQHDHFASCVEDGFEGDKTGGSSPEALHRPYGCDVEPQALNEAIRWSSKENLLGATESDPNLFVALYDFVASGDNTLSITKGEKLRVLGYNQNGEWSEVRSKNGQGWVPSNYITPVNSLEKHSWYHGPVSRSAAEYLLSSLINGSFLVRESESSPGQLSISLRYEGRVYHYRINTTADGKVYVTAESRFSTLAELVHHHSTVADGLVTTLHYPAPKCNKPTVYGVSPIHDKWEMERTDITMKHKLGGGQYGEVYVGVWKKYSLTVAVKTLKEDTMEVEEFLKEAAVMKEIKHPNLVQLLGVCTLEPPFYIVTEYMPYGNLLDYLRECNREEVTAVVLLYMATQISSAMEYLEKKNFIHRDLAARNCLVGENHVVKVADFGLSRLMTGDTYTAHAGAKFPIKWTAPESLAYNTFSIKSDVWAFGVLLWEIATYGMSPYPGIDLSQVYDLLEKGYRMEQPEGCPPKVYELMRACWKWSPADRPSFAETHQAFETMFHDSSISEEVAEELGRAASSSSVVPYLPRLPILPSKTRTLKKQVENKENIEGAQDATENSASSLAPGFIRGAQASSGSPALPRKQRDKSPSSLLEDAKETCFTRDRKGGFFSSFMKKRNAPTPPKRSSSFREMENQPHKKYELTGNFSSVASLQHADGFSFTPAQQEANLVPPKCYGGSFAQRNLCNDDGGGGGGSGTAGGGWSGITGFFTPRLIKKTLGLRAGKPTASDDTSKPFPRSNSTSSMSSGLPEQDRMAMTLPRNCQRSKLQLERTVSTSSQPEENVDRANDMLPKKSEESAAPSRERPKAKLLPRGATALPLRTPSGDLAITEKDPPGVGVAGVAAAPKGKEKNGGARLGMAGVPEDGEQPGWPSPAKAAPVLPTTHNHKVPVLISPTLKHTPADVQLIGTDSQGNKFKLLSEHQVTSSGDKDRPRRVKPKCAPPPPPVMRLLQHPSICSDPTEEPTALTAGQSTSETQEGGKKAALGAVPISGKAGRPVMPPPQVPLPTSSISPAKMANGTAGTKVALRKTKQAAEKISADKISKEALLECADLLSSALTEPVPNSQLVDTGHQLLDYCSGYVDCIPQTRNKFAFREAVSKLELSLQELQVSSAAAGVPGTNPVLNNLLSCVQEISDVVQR
T32 sequence (P07948 whole entry): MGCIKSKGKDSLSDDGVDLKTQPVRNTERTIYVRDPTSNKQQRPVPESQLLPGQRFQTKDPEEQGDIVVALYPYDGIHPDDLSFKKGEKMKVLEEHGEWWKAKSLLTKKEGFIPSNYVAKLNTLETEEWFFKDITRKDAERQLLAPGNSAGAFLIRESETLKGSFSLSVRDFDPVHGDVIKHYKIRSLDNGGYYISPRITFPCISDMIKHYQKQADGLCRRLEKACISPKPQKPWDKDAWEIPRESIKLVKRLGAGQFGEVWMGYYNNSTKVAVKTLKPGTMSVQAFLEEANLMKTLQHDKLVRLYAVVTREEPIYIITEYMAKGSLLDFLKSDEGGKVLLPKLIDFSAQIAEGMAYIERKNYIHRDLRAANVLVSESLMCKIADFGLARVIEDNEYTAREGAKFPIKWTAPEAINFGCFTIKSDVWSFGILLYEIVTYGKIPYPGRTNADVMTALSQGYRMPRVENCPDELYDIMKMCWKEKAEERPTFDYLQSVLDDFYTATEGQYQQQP
T3 sequence (P54756 25-1037): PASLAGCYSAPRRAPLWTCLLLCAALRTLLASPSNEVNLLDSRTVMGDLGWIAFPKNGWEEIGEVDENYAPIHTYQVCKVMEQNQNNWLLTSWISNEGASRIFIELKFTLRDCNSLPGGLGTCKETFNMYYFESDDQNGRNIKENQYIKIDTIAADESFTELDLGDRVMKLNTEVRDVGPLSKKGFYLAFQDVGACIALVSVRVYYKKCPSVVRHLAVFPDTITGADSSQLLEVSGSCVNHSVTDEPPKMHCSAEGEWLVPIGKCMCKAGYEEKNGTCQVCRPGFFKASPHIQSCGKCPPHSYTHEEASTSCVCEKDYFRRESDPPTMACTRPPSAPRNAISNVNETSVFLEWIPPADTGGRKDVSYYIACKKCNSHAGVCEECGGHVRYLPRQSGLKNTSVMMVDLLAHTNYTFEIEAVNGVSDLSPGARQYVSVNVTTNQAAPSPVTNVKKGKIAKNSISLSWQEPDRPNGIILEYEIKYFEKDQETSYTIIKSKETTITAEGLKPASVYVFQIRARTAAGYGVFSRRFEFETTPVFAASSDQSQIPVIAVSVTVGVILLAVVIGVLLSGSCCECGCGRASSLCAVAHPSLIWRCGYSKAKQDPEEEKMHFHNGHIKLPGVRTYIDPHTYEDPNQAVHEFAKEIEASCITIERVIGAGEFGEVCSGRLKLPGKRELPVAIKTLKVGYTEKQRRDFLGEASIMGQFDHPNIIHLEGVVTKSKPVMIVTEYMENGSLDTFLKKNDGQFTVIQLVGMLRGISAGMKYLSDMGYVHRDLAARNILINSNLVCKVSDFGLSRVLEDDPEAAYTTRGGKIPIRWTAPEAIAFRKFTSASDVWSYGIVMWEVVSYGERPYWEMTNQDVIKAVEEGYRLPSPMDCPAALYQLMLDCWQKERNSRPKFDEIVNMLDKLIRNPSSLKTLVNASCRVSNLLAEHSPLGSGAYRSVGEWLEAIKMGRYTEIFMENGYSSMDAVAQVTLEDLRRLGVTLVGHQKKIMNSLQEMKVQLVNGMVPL
T9 sequence (P10398 whole entry): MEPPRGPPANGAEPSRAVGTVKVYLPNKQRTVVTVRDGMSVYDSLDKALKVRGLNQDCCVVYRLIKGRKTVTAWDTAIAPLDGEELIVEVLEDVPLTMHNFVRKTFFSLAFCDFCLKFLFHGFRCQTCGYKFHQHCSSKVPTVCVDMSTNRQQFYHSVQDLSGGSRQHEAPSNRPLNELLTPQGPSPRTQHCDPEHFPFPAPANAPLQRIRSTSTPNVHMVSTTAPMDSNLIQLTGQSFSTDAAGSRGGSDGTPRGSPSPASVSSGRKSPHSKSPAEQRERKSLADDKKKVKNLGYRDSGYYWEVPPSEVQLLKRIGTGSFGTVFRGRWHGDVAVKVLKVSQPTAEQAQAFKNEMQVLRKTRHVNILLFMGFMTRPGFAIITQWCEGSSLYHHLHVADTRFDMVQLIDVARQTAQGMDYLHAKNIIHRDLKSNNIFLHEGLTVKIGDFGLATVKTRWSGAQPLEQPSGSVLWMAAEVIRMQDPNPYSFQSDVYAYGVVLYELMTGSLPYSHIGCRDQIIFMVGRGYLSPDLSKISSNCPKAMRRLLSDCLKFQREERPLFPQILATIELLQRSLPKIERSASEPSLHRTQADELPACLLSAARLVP
T10 sequence (P42679 whole entry): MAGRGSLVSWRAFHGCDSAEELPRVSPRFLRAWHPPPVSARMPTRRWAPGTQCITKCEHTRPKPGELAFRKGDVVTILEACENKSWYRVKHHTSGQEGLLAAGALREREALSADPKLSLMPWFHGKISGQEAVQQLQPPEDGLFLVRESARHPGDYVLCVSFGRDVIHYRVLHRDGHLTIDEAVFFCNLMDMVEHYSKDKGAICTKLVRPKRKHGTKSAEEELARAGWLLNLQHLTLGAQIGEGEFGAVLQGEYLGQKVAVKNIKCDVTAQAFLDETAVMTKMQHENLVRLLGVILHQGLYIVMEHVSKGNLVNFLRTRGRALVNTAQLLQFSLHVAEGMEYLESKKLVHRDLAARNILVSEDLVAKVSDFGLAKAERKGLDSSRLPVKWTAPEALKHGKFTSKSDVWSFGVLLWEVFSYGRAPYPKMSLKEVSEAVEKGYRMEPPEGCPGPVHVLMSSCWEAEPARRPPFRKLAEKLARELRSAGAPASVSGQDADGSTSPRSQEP
T6 sequence (Q6XUX3 whole entry): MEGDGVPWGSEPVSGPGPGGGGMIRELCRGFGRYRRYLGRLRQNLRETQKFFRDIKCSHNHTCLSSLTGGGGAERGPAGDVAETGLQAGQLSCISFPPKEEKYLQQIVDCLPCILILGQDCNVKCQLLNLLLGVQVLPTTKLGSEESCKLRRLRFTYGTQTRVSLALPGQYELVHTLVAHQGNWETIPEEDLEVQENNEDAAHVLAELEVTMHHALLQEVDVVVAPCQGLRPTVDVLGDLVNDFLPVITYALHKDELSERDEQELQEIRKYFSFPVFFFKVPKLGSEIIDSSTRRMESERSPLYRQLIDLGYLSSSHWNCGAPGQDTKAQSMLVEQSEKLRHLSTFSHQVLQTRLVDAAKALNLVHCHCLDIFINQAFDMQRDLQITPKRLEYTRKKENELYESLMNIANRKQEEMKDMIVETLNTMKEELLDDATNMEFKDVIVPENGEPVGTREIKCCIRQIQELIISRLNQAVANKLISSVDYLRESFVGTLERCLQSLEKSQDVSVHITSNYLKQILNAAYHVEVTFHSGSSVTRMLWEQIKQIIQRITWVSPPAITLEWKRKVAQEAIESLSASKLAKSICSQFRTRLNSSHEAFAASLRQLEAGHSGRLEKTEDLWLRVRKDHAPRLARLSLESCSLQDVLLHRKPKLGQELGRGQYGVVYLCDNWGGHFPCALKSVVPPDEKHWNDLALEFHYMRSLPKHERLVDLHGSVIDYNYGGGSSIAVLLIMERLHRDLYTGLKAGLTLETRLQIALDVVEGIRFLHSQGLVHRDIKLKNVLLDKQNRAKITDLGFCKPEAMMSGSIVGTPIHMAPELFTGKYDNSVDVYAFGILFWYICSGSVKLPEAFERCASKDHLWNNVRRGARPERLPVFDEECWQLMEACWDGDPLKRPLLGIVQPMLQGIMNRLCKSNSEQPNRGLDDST
T7 sequence (Q9BXA6 whole entry): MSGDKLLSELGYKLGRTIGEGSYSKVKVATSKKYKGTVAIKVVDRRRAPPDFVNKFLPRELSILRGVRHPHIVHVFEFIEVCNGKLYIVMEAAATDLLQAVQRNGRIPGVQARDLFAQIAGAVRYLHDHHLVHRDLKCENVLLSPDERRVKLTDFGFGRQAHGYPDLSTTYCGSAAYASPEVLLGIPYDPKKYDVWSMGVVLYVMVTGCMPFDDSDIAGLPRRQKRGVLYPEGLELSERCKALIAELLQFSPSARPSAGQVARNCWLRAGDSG

COc1cc(Nc2ncnc(Nc3cc4c(cn3)NC(=O)C(C)(C)O4)n2)cc(OC)c1OC [MT-SYK-03]
remaining activity at 0.5 µM [1]: 78.6% | remaining activity at 0.5 µM ([2]; 500 nM, relative to DMSO): 129% | Residual enzymatic activity [3]: 76.4% | remaining activity at 0.5 µM [4]: 107% | remaining activity at 0.5 µM [5]: 110% | remaining activity at 0.5 µM [6]: 104% | remaining activity at 0.5 µM [7]: 103% | remaining activity at 0.5 µM [8]: 92.4% | remaining activity at 0.5 µM [9]: 59.7% | remaining activity at 0.5 µM [10]: 96.6% | remaining activity at 0.5 µM [11]: 106% | remaining activity at 0.5 µM [12]: 32.3% | IC50 [12, 41]: 120 nM | remaining activity at 0.5 µM [13]: 82.4% | remaining activity at 0.5 µM [14]: 108% | remaining activity at 0.5 µM [15]: 94.8% | remaining activity at 0.5 µM [16]: 81% | remaining activity at 0.5 µM [17]: 99.4% | remaining activity at 0.5 µM [18]: 106% | remaining activity at 0.5 µM [19]: 95.9% | remaining activity at 0.5 µM [20]: 103% | remaining activity at 0.5 µM [21]: 98.4% | remaining activity at 0.5 µM [22]: 100% | remaining activity at 0.5 µM [23]: 103% | remaining activity at 0.5 µM [24]: 108% | remaining activity at 0.5 µM [25]: 91.4% | remaining activity at 0.5 µM [26]: 83.7% | remaining activity at 0.5 µM [27]: 99.6% | remaining activity at 0.5 µM [28]: 89% | remaining activity at 0.5 µM [29]: 102% | remaining activity at 0.5 µM [30]: 96% | remaining activity at 0.5 µM [31]: 102% | remaining activity at 0.5 µM [32]: 12.5% | IC50 [32, 41]: 8.8 nM | inhibition at 0.5 µM ([32]; read-out: Inhibition at 500 nM): > 90% | Residual enzymatic activity [33]: 94.2% | remaining activity at 0.5 µM [34]: 106% | remaining activity at 0.5 µM [35]: 91.8% | remaining activity at 0.5 µM [36]: 90.6% | remaining activity at 0.5 µM [37]: 108% | remaining activity at 0.5 µM [38]: 105% | remaining activity at 0.5 µM [39]: 82.1% | Residual enzymatic activity [40]: 77.7%

COc1cc(Nc2ncc(F)c(Nc3ccc4c(n3)NC(=O)C(C)(C)O4)n2)cc(OC)c1OC [R406, reference compound]
remaining activity at 0.5 µM [1]: 83.1% | remaining activity at 0.5 µM [2]: 131% | remaining activity at 0.5 µM [3, 42]: 60.9% | remaining activity at 0.5 µM [4]: 98.8% | remaining activity at 0.5 µM [5]: 99.8% | remaining activity at 0.5 µM [6]: 100% | remaining activity at 0.5 µM [7]: 98.7% | remaining activity at 0.5 µM [8]: 28% | remaining activity at 0.5 µM [9]: 41% | remaining activity at 0.5 µM [10]: 120% | remaining activity at 0.5 µM [11]: 110% | remaining activity at 0.5 µM [12]: 34.5% | remaining activity at 0.5 µM [13]: 37.9% | remaining activity at 0.5 µM [14]: 77.2% | remaining activity at 0.5 µM [15]: 85.4% | remaining activity at 0.5 µM [16]: 31.4% | remaining activity at 0.5 µM [17]: 79.6% | remaining activity at 0.5 µM [18]: 91.7% | remaining activity at 0.5 µM [19]: 96.4% | remaining activity at 0.5 µM [20]: 95.2% | remaining activity at 0.5 µM [21]: 103% | remaining activity at 0.5 µM [22]: 101% | remaining activity at 0.5 µM [23]: 101% | remaining activity at 0.5 µM [24]: 95.6% | remaining activity at 0.5 µM [25]: 78.6% | remaining activity at 0.5 µM [26]: 70.6% | remaining activity at 0.5 µM [27]: 81.7% | remaining activity at 0.5 µM [28]: 73.6% | remaining activity at 0.5 µM [29]: 91.9% | remaining activity at 0.5 µM [30]: 75.6% | remaining activity at 0.5 µM [31]: 59.7% | remaining activity at 0.5 µM [32]: 5.7% | remaining activity at 0.5 µM [33, 42]: 84.4% | remaining activity at 0.5 µM [34]: 95.2% | remaining activity at 0.5 µM [35]: 93.4% | remaining activity at 0.5 µM [36]: 88% | remaining activity at 0.5 µM [37]: 107% | remaining activity at 0.5 µM [38]: 100% | remaining activity at 0.5 µM [39]: 60% | remaining activity at 0.5 µM [40, 42]: 69.5%
